Results as given in PubChem BioAssay (NCI).
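Five concentrations, 48 hours, 96-well plates. The concentration for 50% growth inhibition is given as GI50. TGI: concentration producing complete growth inhibition.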

Legend:
Assay in all cases: DTP human tumour cell line panel, 48 h
OVCAR-5 ovarian = test system: OVCAR-5 ovarian
HS 578T breast = test system: HS 578T breast
UO-31 renal = test system: UO-31 renal
RXF 393 renal = test system: RXF 393 renal
MOLT-4 leukemia = test system: MOLT-4 leukemia
NCI-H226 lung = test system: NCI-H226 lung
ACHN renal = test system: ACHN renal
SNB-75 CNS = test system: SNB-75 CNS
HCC-2998 colon = test system: HCC-2998 colon
SF-268 CNS = test system: SF-268 CNS

| SMILES | TGI (OVCAR-5 ovarian) [µM] | TGI (HS 578T breast) [µM] | TGI (UO-31 renal) [µM] | TGI (RXF 393 renal) [µM] | TGI (MOLT-4 leukemia) [µM] | TGI (NCI-H226 lung) [µM] | TGI (ACHN renal) [µM] | TGI (SNB-75 CNS) [µM] | TGI (HCC-2998 colon) [µM] | TGI (SF-268 CNS) [µM] | GI50 (OVCAR-5 ovarian) [µM] | GI50 (HS 578T breast) [µM] | GI50 (UO-31 renal) [µM] | GI50 (RXF 393 renal) [µM] | GI50 (MOLT-4 leukemia) [µM] | GI50 (NCI-H226 lung) [µM] | GI50 (ACHN renal) [µM] | GI50 (SNB-75 CNS) [µM] | GI50 (HCC-2998 colon) [µM] | GI50 (SF-268 CNS) [µM] |
| --- | --- | --- | --- | --- | --- | --- | --- | --- | --- | --- | --- | --- | --- | --- | --- | --- | --- | --- | --- | --- |
| O=c1[nH]nc(-c2ccccc2)n1/N=C\c1ccccc1 | > 100 | > 100 | > 100 | > 100 | > 100 | > 100 | > 100 | > 100 | > 100 | > 100 | – | – | – | – | – | – | – | – | – | – |
| COc1c(O)c(C=O)c2c(O)c(-c3c(C)cc4c(C(C)C)c(OC)c(O)c(C=O)c4c3O)c(C)cc2c1C(C)C | 20.7 | – | 11.1 | 5.75 | 27.9 | 9.69 | 8.05 | 9.38 | 5.34 | 23.5 | – | – | – | – | – | – | – | – | – | – |
| CCNC(=S)N=Nc1c(O)[nH]c2ccc([N+](=O)[O-])cc12 | > 100 | > 100 | > 100 | 80.4 | > 100 | > 100 | > 100 | – | 72.8 | > 100 | – | – | – | – | – | – | – | – | – | – |
| COc1ccc(N2C(=O)CC(=O)N(C(=O)COc3ccc(OCC(=O)N4C(=O)CC(=O)N(c5ccc(OC)cc5)C4=S)cc3)C2=S)cc1 | > 100 | – | > 100 | 77.3 | > 100 | > 100 | > 100 | > 100 | > 100 | > 100 | – | – | – | – | – | – | – | – | – | – |
| C=C[C@@H](C)[C@H](NS(=O)(=O)c1ccc(C)cc1)C(=O)OCC | > 100 | 56.4 | 96.1 | > 100 | > 100 | > 100 | > 100 | 60.7 | – | > 100 | – | – | – | – | – | – | – | – | – | – |
| Nc1ccc(S(=O)(=O)c2ccc(NCN3C(=O)NC(=O)C(=O)C3=O)cc2)cc1 | > 100 | > 100 | > 100 | > 100 | > 100 | > 100 | > 100 | – | > 100 | > 100 | – | – | – | – | – | – | – | – | – | – |
| O=C(N/N=C/C=C/c1ccc([N+](=O)[O-])o1)c1cc2ccccc2cc1O | 10.7 | > 100 | 4.06 | 1.77 | 7.3 | 4.78 | 9.39 | 6.12 | 2.59 | 7.43 | 3.35 | 3.6 | 1.05 | 0.412 | 1.18 | 1.64 | 1.26 | 1.97 | 1.31 | 1.43 |
| CO/N=C1\CC(NC(=O)CNC(=O)OC(C)(C)C)c2ccsc21 (stereo not drawn) | > 100 | > 100 | > 100 | > 100 | > 100 | > 100 | – | > 100 | > 100 | > 100 | – | – | – | – | – | – | – | – | – | – |
| OC1(c2ccccc2)CCN(Cc2c[nH]c3ccccc23)CC1 | > 100 | > 100 | > 100 | > 100 | > 100 | > 100 | > 100 | > 100 | 31.6 | > 100 | – | – | – | – | – | – | – | – | – | – |
| Cc1cc(-c2nc3cc(F)ccc3s2)ccc1NC(=O)[C@@H](N)CCCCN | 17 | 24.7 | 13.9 | 24.2 | 7.24 | 18.1 | 19.3 | 4.99 | 6.85 | 22.6 | – | – | – | – | – | – | – | – | – | – |
| CCN(CC)N1C(=O)[N+](CC)(CC)N=C1[O-] | > 100 | > 100 | > 100 | – | > 100 | > 100 | > 100 | > 100 | > 100 | > 100 | – | – | – | – | – | – | – | – | – | – |
| NS(=O)(=O)c1ccc(/C=C/c2ccc(F)cc2)cc1 | > 100 | 77.7 | 61.1 | 46.8 | > 100 | 27 | 19.4 | > 100 | > 100 | > 100 | – | 23.7 | – | – | 12.9 | 7.97 | 2.97 | – | – | 20.5 |
| CC(=O)Oc1cc2c(cc1OC(C)=O)OCC(c1ccc(C)cc1)C2 (stereo not drawn) | 79 | – | 38.3 | 34.6 | 54.6 | 62.2 | – | 32.3 | 16.4 | 34.2 | – | – | – | – | – | – | – | – | – | – |
| CSCCC(N)C(=O)NCCNc1ccc(NCCNC(=O)C(N)CCSC)c2c1C(=O)c1ccccc1C2=O (stereo not drawn) | 5.61 | 6.85 | 4.39 | 4.73 | 4.23 | 7.46 | 5.45 | 3.65 | 2.33 | 4.55 | – | – | – | – | – | – | – | – | – | – |
| Cc1ccc2c(=O)cc(-c3ccc(Cl)s3)[nH]c2n1 | > 100 | > 22.9 | 0.301 | > 25.7 | > 100 | 7.79 | > 100 | > 27.9 | 25.9 | > 81.6 | – | – | – | – | – | – | – | – | – | – |
| C/C=C/c1cc(=O)c([C@@H]2OC(=O)c3cc(OC)cc(OC)c32)co1 | – | – | > 100 | > 100 | > 100 | > 100 | > 100 | 60.3 | 90 | > 100 | – | – | – | – | – | – | – | – | – | – |
| O=C1C(Cl)=C(OCCCl)C(=O)c2c(O)ccc(O)c21 | 31.6 | – | 11 | 18.6 | 0.619 | 30.7 | 10.4 | 26.3 | 35.4 | 17.1 | – | – | – | – | – | – | – | – | – | – |
| Cc1cccc(Nc2nn3c(=O)c4c5c(sc4nc3s2)CCCC5)c1 | > 100 | > 100 | > 100 | 62.8 | > 100 | > 100 | > 100 | 78.4 | – | > 100 | – | – | – | – | – | – | – | – | – | – |
| Cc1cc(C)nc(SC2=C(Nc3ccc(C)c(Cl)c3)C(=O)N(Cc3ccccc3)C2=O)n1 | > 160 | > 160 | > 160 | – | – | > 160 | > 160 | > 160 | > 160 | > 160 | > 160 | > 160 | > 160 | – | – | > 160 | > 160 | > 160 | > 160 | > 160 |
| CC(=O)NCCC1CN(C(=O)/C=C/I)c2ccccc21 (stereo not drawn) | 29.3 | 37 | 6.85 | 10.8 | > 64.6 | 29.2 | 17.8 | 30.7 | 29.6 | 23.5 | – | – | – | – | – | – | – | – | – | – |
